In brackets after ≈: the same amount, converted by molar mass. Where two headings read alike, the source gives them in different places.
Experiments:
Assay type in all cases: cell-based
[1] = test system: Candida albicans ATCC 10231; assay: In vitro antifungal MIC, Candida albicans ATCC 10231; settings: Candida albicans ATCC 10231, 35°-37° C., 48 hours
Description: (§1) The in vitro antifungal activity of the compounds of the present invention against a variety of fungiwas determined as follow: Test medium was prepared by dissolving first 5 g of dextrose and then 6.7 g of Bacto Yeast Nitrogen Base® (commercially available from Difco Laboratories) in 100 mL of distilled water. The solution was filter-sterilized and diluted 1:10 with 0.01M pH 8.0 phosphate buffer solution, and the final pH of the medium adjusted to about pH 7.0 when necessary with either 0.1N hydrochloric acid solution of 0.1N sodium hydroxide solution. […] These concentrated stock solutions were diluted to a concentration of 200 μg/mL (twice the highest concentration desired for testing) with the test medium. Amphotericin B, similarly prepared, was used as a reference antifungal agent.
(§2) The test organisms were then inoculated into test tubes containing approximately 3 to 10 mL of test medium and the test tubes incubated overnight at 37° C. A sample of each overnight culture was placed in a test tube and diluted using the test medium until a reading of 95% transmittance was obtained in a conventional UV/visible spectrophotometer set to 560 nm. The adjusted cultures were then diluted 1:50 with test medium. These diluted cultures served as the inocula for the assays which follow and were used within 15 minutes of preparation.
(§3) Next, 2-fold serial dilutions of each test compound in test medium were prepared in a 96-well microtiter plate using calibrated microdiluters attached to an automatic (hand-held) diluter (available from Dynatech Laboratories).
(§4) Using sterile calibrated droppers or a multi-point dispenser, the diluted inoculum suspension was added to each of the wells in the plate. When inoculation was complete, the microtiter tray was covered with a plastic plate sealer to minimize evaporation. After the plate had been sealed, a hole was made above each well with a sterile 26-gauge syringe needle in order to allow gas exchange. If plate sealers were not available, the microtiter trays were stacked in groups of five or less with an empty tray on top. The microtiter trays were then incubated in a humidified chamber at 35°-37° C. for 48 hours or until growth was visible in the growth control wells.
(§5) The minimum inhibitory concentration (MIC) was defined as the lowest concentration of test compound yielding no growth, a slight haze or sparsely isolated colonies on the inoculum spot as compared to the growth control containing no test compound.

Candida albicans 579A = assay: In vitro antifungal MIC, Candida albicans 579A; settings: Candida albicans 579A, 35°-37° C., 48 hours
Description: as §1, §2, §3, §4, §5

Candida albicans CCH 442 = assay: In vitro antifungal MIC, Candida albicans CCH 442; settings: Candida albicans CCH 442, 35°-37° C., 48 hours
Description: as §1, §2, §3, §4, §5

[2] = test system: Candida albicans ATCC 38247; assay: In vitro antifungal MIC, Candida albicans ATCC 38247; settings: Candida albicans ATCC 38247, 35°-37° C., 48 hours
Description: as §1, §2, §3, §4, §5

[3] = test system: Candida albicans ATCC 62376; assay: In vitro antifungal MIC, Candida albicans ATCC 62376; settings: Candida albicans ATCC 62376, 35°-37° C., 48 hours
Description: as §1, §2, §3, §4, §5

[4] = test system: Candida tropicalis NRRL-Y-112; assay: In vitro antifungal MIC, Candida tropicalis NRRL-Y-112; settings: Candida tropicalis NRRL-Y-112, 35°-37° C., 48 hours
Description: as §1, §2, §3, §4, §5

Candida kefyr ATCC 28838 = assay: In vitro antifungal MIC, Candida kefyr ATCC 28838; settings: Candida kefyr ATCC 28838, 35°-37° C., 48 hours
Description: as §1, §2, §3, §4, §5

[5] = test system: Torulopsis glabrata ATCC 15545; assay: In vitro antifungal MIC, Torulopsis glabrata ATCC 15545; settings: Torulopsis glabrata ATCC 15545, 35°-37° C., 48 hours
Description: as §1, §2, §3, §4, §5

[6] = test system: Cryptococcus albidus ATCC 34140; assay: In vitro antifungal MIC, Cryptococcus albidus ATCC 34140; settings: Cryptococcus albidus ATCC 34140, 35°-37° C., 48 hours
Description: as §1, §2, §3, §4, §5

[7] = test system: Aspergillus niger ATCC 16404; assay: In vitro antifungal MIC, Aspergillus niger ATCC 16404; settings: Aspergillus niger ATCC 16404, 35°-37° C., 48 hours
Description: as §1, §2, §3, §4, §5

[8] = Kluyveromyces marxianus, ATCC28838, read-out: MIC
[9] = Nakaseomyces glabratus, ATCC15545, read-out: MIC
[10] = Naganishia albida, ATCC34140, read-out: MIC

Compound | MIC [1] | MIC (Candida albicans 579A) | MIC (Candida albicans CCH 442) | MIC [2] | MIC [3] | MIC [4] | MIC (Candida kefyr ATCC 28838) | MIC [5] | MIC [6] | MIC [7] | MIC ([1]; ATCC10231, read-out: MIC) | MIC (Candida albicans 579A; read-out: MIC) | MIC (Candida albicans CCH 442; CCH442, read-out: MIC) | MIC ([2]; ATCC38247, read-out: MIC) | MIC ([3]; ATCC62376, read-out: MIC) | MIC ([4]; NRRLY112, read-out: MIC) | MIC (Candida kefyr ATCC 28838; [8]) | MIC [5, 9] | MIC [6, 10] | MIC ([7]; ATCC16404, read-out: MIC)
2-n-octyl-5-methyl-1,3,2-benzodithiazole-1-oxide; 2-n-octyl-6-methyl-1,3,2-benzodithiazole-1-oxide [Example 40] | 1.56 µg/mL | 0.78 µg/mL | 3.12 µg/mL | 0.2 µg/mL | 1.56 µg/mL | 3.12 µg/mL | 0.78 µg/mL | 3.12 µg/mL | 3.12 µg/mL | 1.56 µg/mL | – | – | – | – | – | – | – | – | – | –
2-phenylmethyl-5-methyl-1,3,2-benzodithiazole-1-oxide; 2-phenylmethyl-6-methyl-1,3,2-benzodithiazole-1-oxide [Example 41] | 1.56 µg/mL | 0.78 µg/mL | 3.12 µg/mL | 0.39 µg/mL | 1.56 µg/mL | 3.12 µg/mL | 0.78 µg/mL | 3.12 µg/mL | 6.25 µg/mL | 1.56 µg/mL | – | – | – | – | – | – | – | – | – | –
[O-][S+]1c2ccccc2SN1CCc1ccccc1 (stereo not shown) [Example 1, 2-(2-Phenylethyl)-1,3,2-benzodithiazole-1-oxide] | – | – | – | – | – | – | – | – | – | – | 0.78 µg/mL (≈ 2.83 µM) | 0.39 µg/mL (≈ 1.42 µM) | 1.56 µg/mL (≈ 5.66 µM) | 1.56 µg/mL (≈ 5.66 µM) | 0.78 µg/mL (≈ 2.83 µM) | 3.12 µg/mL (≈ 11.3 µM) | 0.78 µg/mL (≈ 2.83 µM) | 1.56 µg/mL (≈ 5.66 µM) | 3.12 µg/mL (≈ 11.3 µM) | 3.12 µg/mL (≈ 11.3 µM)
CN1Sc2ccccc2[S+]1[O-] (stereo not shown) [Example 2, 2-methyl-1,3,2-benzodithiazole-1-oxide] | – | – | – | – | – | – | – | – | – | – | 1.56 µg/mL (≈ 8.42 µM) | 1.56 µg/mL (≈ 8.42 µM) | 1.56 µg/mL (≈ 8.42 µM) | – | 0.78 µg/mL (≈ 4.21 µM) | 1.56 µg/mL (≈ 8.42 µM) | 1.56 µg/mL (≈ 8.42 µM) | 0.78 µg/mL (≈ 4.21 µM) | 3.12 µg/mL (≈ 16.8 µM) | 3.12 µg/mL (≈ 16.8 µM)
CCCN1Sc2ccccc2[S+]1[O-] (stereo not shown) [Example 3, 2-n-propyl-1,3,2-benzodithiazole-1-oxide] | – | – | – | – | – | – | – | – | – | – | 0.78 µg/mL (≈ 3.66 µM) | 0.78 µg/mL (≈ 3.66 µM) | 0.78 µg/mL (≈ 3.66 µM) | 3.12 µg/mL (≈ 14.6 µM) | 0.78 µg/mL (≈ 3.66 µM) | 0.78 µg/mL (≈ 3.66 µM) | 0.2 µg/mL (≈ 0.938 µM) | 0.78 µg/mL (≈ 3.66 µM) | 3.12 µg/mL (≈ 14.6 µM) | 6.25 µg/mL (≈ 29.3 µM)
CCCCCN1Sc2ccccc2[S+]1[O-] (stereo not shown) [Example 4, 2-n-pentyl-1,3,2-benzodithiazole-1-oxide] | – | – | – | – | – | – | – | – | – | – | 0.78 µg/mL (≈ 3.23 µM) | 0.78 µg/mL (≈ 3.23 µM) | 0.78 µg/mL (≈ 3.23 µM) | 3.12 µg/mL (≈ 12.9 µM) | 0.78 µg/mL (≈ 3.23 µM) | 50 µg/mL (≈ 207 µM) | 0.78 µg/mL (≈ 3.23 µM) | 0.78 µg/mL (≈ 3.23 µM) | 6.25 µg/mL (≈ 25.9 µM) | 0.39 µg/mL (≈ 1.62 µM)
CCCCCCCN1Sc2ccccc2[S+]1[O-] (stereo not shown) [Example 5, 2-n-heptyl-1,3,2-benzodithiazole-1-oxide] | – | – | – | – | – | – | – | – | – | – | 0.39 µg/mL (≈ 1.45 µM) | 0.2 µg/mL (≈ 0.742 µM) | 0.78 µg/mL (≈ 2.89 µM) | 0.78 µg/mL (≈ 2.89 µM) | 0.78 µg/mL (≈ 2.89 µM) | 0.78 µg/mL (≈ 2.89 µM) | 0.39 µg/mL (≈ 1.45 µM) | 0.39 µg/mL (≈ 1.45 µM) | 3.12 µg/mL (≈ 11.6 µM) | 0.39 µg/mL (≈ 1.45 µM)
CCCCCCCCN1Sc2ccccc2[S+]1[O-] (stereo not shown) [Example 6, 2-n-octyl-1,3,2-benzodithiazole-1-oxide] | – | – | – | – | – | – | – | – | – | – | 0.2 µg/mL (≈ 0.706 µM) | 0.2 µg/mL (≈ 0.706 µM) | 0.2 µg/mL (≈ 0.706 µM) | 0.39 µg/mL (≈ 1.38 µM) | 0.1 µg/mL (≈ 0.353 µM) | 0.2 µg/mL (≈ 0.706 µM) | 0.1 µg/mL (≈ 0.353 µM) | 0.2 µg/mL (≈ 0.706 µM) | 3.12 µg/mL (≈ 11 µM) | 0.2 µg/mL (≈ 0.706 µM)

Reference: patent US5140018A, “1,3,2-benzodithiazole-1-oxide compounds” (Abbott Laboratories, priority 1991, dated 1992)
